Experiment: xn = mol fraction of the nth substance listed
Details: 101 kPa

CC(O)C(=O)[O-].[NH3+]CCO (stereo not drawn) + CO
speed of sound (288.15 K, x2 = 0.0675): 1875.8 m/s
speed of sound (288.15 K, x2 = 0.2586): 1802.2 m/s
speed of sound (288.15 K, x2 = 0.3811): 1745.7 m/s
speed of sound (288.15 K, x2 = 0.4275): 1721.2 m/s
speed of sound (288.15 K, x2 = 0.518): 1666.4 m/s
speed of sound (288.15 K, x2 = 0.6083): 1603.6 m/s
speed of sound (288.15 K, x2 = 0.7069): 1522 m/s
speed of sound (288.15 K, x2 = 0.8985): 1301.9 m/s
speed of sound (290.65 K, x2 = 0.0675): 1867.4 m/s
speed of sound (290.65 K, x2 = 0.1469): 1839.5 m/s
speed of sound (290.65 K, x2 = 0.2586): 1795.1 m/s
speed of sound (290.65 K, x2 = 0.4275): 1715 m/s
speed of sound (290.65 K, x2 = 0.518): 1660 m/s
speed of sound (290.65 K, x2 = 0.6083): 1597.9 m/s
speed of sound (290.65 K, x2 = 0.7069): 1515.5 m/s
speed of sound (290.65 K, x2 = 0.7972): 1422 m/s
speed of sound (290.65 K, x2 = 0.8985): 1294.8 m/s
speed of sound (293.15 K, x2 = 0.1469): 1831.9 m/s
speed of sound (293.15 K, x2 = 0.2586): 1788.4 m/s
speed of sound (293.15 K, x2 = 0.518): 1653.7 m/s
speed of sound (293.15 K, x2 = 0.6083): 1592 m/s
speed of sound (293.15 K, x2 = 0.7069): 1509 m/s
speed of sound (293.15 K, x2 = 0.7972): 1415.5 m/s
speed of sound (293.15 K, x2 = 0.8985): 1287.8 m/s
speed of sound (295.65 K, x2 = 0.0675): 1852.2 m/s
speed of sound (295.65 K, x2 = 0.1469): 1824.6 m/s
speed of sound (295.65 K, x2 = 0.3811): 1727.1 m/s
speed of sound (295.65 K, x2 = 0.6083): 1586.1 m/s
speed of sound (295.65 K, x2 = 0.7972): 1409 m/s
speed of sound (298.15 K, x2 = 0.0675): 1845.1 m/s
speed of sound (298.15 K, x2 = 0.1469): 1817.8 m/s
speed of sound (298.15 K, x2 = 0.2586): 1775.2 m/s
speed of sound (298.15 K, x2 = 0.4275): 1697 m/s
speed of sound (298.15 K, x2 = 0.518): 1641.3 m/s
speed of sound (298.15 K, x2 = 0.6083): 1580.2 m/s
speed of sound (298.15 K, x2 = 0.7972): 1402.4 m/s
speed of sound (300.65 K, x2 = 0.0675): 1838.4 m/s
speed of sound (300.65 K, x2 = 0.1469): 1811.2 m/s
speed of sound (300.65 K, x2 = 0.2586): 1768.8 m/s
speed of sound (300.65 K, x2 = 0.3811): 1715.2 m/s
speed of sound (300.65 K, x2 = 0.4275): 1690.9 m/s
speed of sound (300.65 K, x2 = 0.6083): 1574.2 m/s
speed of sound (300.65 K, x2 = 0.7069): 1489.5 m/s
speed of sound (300.65 K, x2 = 0.7972): 1395.8 m/s
speed of sound (300.65 K, x2 = 0.8985): 1266.1 m/s
speed of sound (303.15 K, x2 = 0.0675): 1831.9 m/s
speed of sound (303.15 K, x2 = 0.1469): 1804.9 m/s
speed of sound (303.15 K, x2 = 0.2586): 1762.6 m/s
speed of sound (303.15 K, x2 = 0.3811): 1709.4 m/s
speed of sound (303.15 K, x2 = 0.4275): 1685 m/s
speed of sound (303.15 K, x2 = 0.7069): 1483 m/s
speed of sound (303.15 K, x2 = 0.7972): 1389.3 m/s
speed of sound (303.15 K, x2 = 0.8985): 1258.9 m/s
speed of sound (305.65 K, x2 = 0.0675): 1825.7 m/s
speed of sound (305.65 K, x2 = 0.1469): 1798.8 m/s
speed of sound (305.65 K, x2 = 0.2586): 1756.6 m/s
speed of sound (305.65 K, x2 = 0.3811): 1703.5 m/s
speed of sound (305.65 K, x2 = 0.4275): 1679 m/s
speed of sound (305.65 K, x2 = 0.518): 1623.2 m/s
speed of sound (305.65 K, x2 = 0.6083): 1562.1 m/s
speed of sound (305.65 K, x2 = 0.7069): 1476.6 m/s
speed of sound (305.65 K, x2 = 0.7972): 1382.8 m/s
speed of sound (305.65 K, x2 = 0.8985): 1251.8 m/s
speed of sound (308.15 K, x2 = 0.0675): 1819.6 m/s
speed of sound (308.15 K, x2 = 0.1469): 1792.9 m/s
speed of sound (308.15 K, x2 = 0.2586): 1750.5 m/s
speed of sound (308.15 K, x2 = 0.3811): 1697.6 m/s
speed of sound (308.15 K, x2 = 0.4275): 1673 m/s
speed of sound (308.15 K, x2 = 0.518): 1617.2 m/s
speed of sound (308.15 K, x2 = 0.6083): 1556 m/s
speed of sound (308.15 K, x2 = 0.7972): 1376.2 m/s
speed of sound (308.15 K, x2 = 0.8985): 1244.6 m/s
speed of sound (310.65 K, x2 = 0.0675): 1813.6 m/s
speed of sound (310.65 K, x2 = 0.1469): 1787 m/s
speed of sound (310.65 K, x2 = 0.2586): 1744.5 m/s
speed of sound (310.65 K, x2 = 0.3811): 1691.7 m/s
speed of sound (310.65 K, x2 = 0.4275): 1667.1 m/s
speed of sound (310.65 K, x2 = 0.518): 1611.2 m/s
speed of sound (310.65 K, x2 = 0.6083): 1549.9 m/s
speed of sound (310.65 K, x2 = 0.7069): 1463.8 m/s
speed of sound (310.65 K, x2 = 0.7972): 1369.7 m/s
speed of sound (310.65 K, x2 = 0.8985): 1237.5 m/s
speed of sound (313.15 K, x2 = 0.0675): 1807.7 m/s
speed of sound (313.15 K, x2 = 0.1469): 1781.1 m/s
speed of sound (313.15 K, x2 = 0.3811): 1685.9 m/s
speed of sound (313.15 K, x2 = 0.4275): 1661.1 m/s
speed of sound (313.15 K, x2 = 0.518): 1605.2 m/s
speed of sound (313.15 K, x2 = 0.7069): 1457.3 m/s
speed of sound (315.65 K, x2 = 0.0675): 1801.9 m/s
speed of sound (315.65 K, x2 = 0.1469): 1775.2 m/s
speed of sound (315.65 K, x2 = 0.2586): 1732.6 m/s
speed of sound (315.65 K, x2 = 0.3811): 1680 m/s
speed of sound (315.65 K, x2 = 0.518): 1599.1 m/s
speed of sound (315.65 K, x2 = 0.6083): 1537.6 m/s
speed of sound (315.65 K, x2 = 0.7069): 1451 m/s
speed of sound (315.65 K, x2 = 0.7972): 1356.6 m/s
speed of sound (315.65 K, x2 = 0.8985): 1223.2 m/s
speed of sound (318.15 K, x2 = 0.0675): 1796.2 m/s
speed of sound (318.15 K, x2 = 0.2586): 1726.7 m/s
speed of sound (318.15 K, x2 = 0.3811): 1674.2 m/s
speed of sound (318.15 K, x2 = 0.4275): 1649.2 m/s
speed of sound (318.15 K, x2 = 0.518): 1593.1 m/s
speed of sound (318.15 K, x2 = 0.6083): 1531.4 m/s
speed of sound (318.15 K, x2 = 0.7069): 1444.5 m/s
speed of sound (318.15 K, x2 = 0.8985): 1216.1 m/s
speed of sound (320.65 K, x2 = 0.0675): 1790.5 m/s
speed of sound (320.65 K, x2 = 0.1469): 1763.7 m/s
speed of sound (320.65 K, x2 = 0.2586): 1720.8 m/s
speed of sound (320.65 K, x2 = 0.3811): 1668.4 m/s
speed of sound (320.65 K, x2 = 0.4275): 1643.4 m/s
speed of sound (320.65 K, x2 = 0.518): 1587.1 m/s
speed of sound (320.65 K, x2 = 0.6083): 1525.2 m/s
speed of sound (320.65 K, x2 = 0.7069): 1438.2 m/s
speed of sound (320.65 K, x2 = 0.7972): 1343.6 m/s
speed of sound (320.65 K, x2 = 0.8985): 1209 m/s
speed of sound (323.15 K, x2 = 0.1469): 1758 m/s
speed of sound (323.15 K, x2 = 0.2586): 1715 m/s
speed of sound (323.15 K, x2 = 0.3811): 1662.7 m/s
speed of sound (323.15 K, x2 = 0.518): 1581.1 m/s
speed of sound (323.15 K, x2 = 0.6083): 1519 m/s
speed of sound (323.15 K, x2 = 0.7069): 1431.9 m/s
speed of sound (323.15 K, x2 = 0.7972): 1337.2 m/s
speed of sound (323.15 K, x2 = 0.8985): 1201.9 m/s

Source: a compilation of properties of binary mixtures (doi:10.5541/ijot.303607)
